Source: the supplement of paper PMC13380429

Key:
Settings in all cases: 72 h
[1] = tested on: HepG2; assay: relative viability EC50 (midpoint between 100% and the lowest measured viability); higher = less toxic
[2] = tested on: Caco-2; assay: as above
[3] = tested on: Vero E6; assay: as above
[4] = tested on: U2OS; assay: as above
[5] = tested on: Calu-3; assay: as above
[6] = tested on: HepG2; assay: drug sensitivity score (DSS) for viability; higher = more toxic; extreme values may be limits of the assay
[7] = tested on: Caco-2; assay: as above
[8] = tested on: Vero E6; assay: as above
[9] = tested on: U2OS; assay: as above
[10] = tested on: Calu-3; assay: as above
[11] = tested on: HepG2; assay: cell viability relative to DMSO; higher = less toxic
[12] = tested on: Caco-2; assay: as above
[13] = tested on: Vero E6; assay: as above
[14] = tested on: U2OS; assay: as above
[15] = tested on: Calu-3; assay: as above

C[C@@H]1C[C@H]2[C@@H]3C[C@H](F)C4=CC(=O)C=C[C@]4(C)[C@@]3(F)[C@@H](O)C[C@]2(C)[C@@]1(O)C(=O)COC(=O)C(C)(C)C [flumethasone-pivalate]
relative viability EC50 [1]: > 10 µM | relative viability EC50 [2]: > 10 µM | relative viability EC50 [3]: > 10 µM | relative viability EC50 [4]: > 10 µM | relative viability EC50 [5]: > 10 µM | drug sensitivity score [6]: 0.3 | drug sensitivity score [7]: 0.1 | drug sensitivity score [8]: 0.6 | drug sensitivity score [9]: 0 | drug sensitivity score [10]: 0 | cell viability ([11]; 1 nM): 82.4% | cell viability ([11]; 10 nM): 100% | cell viability ([11]; 100 nM): 87.4% | cell viability ([11]; 1000 nM): 103% | cell viability ([11]; 10000 nM): 82.6% | cell viability ([12]; 1 nM): 121% | cell viability ([12]; 10 nM): 103% | cell viability ([12]; 100 nM): 122% | cell viability ([12]; 1000 nM): 94.9% | cell viability ([12]; 10000 nM): 89% | cell viability ([13]; 1 nM): 96.6% | cell viability ([13]; 10 nM): 95.3% | cell viability ([13]; 100 nM): 101% | cell viability ([13]; 1000 nM): 96.3% | cell viability ([13]; 10000 nM): 84.5% | cell viability ([14]; 1 nM): 106% | cell viability ([14]; 10 nM): 102% | cell viability ([14]; 100 nM): 102% | cell viability ([14]; 1000 nM): 97.6% | cell viability ([14]; 10000 nM): 101% | cell viability ([15]; 1 nM): 113% | cell viability ([15]; 10 nM): 102% | cell viability ([15]; 100 nM): 106% | cell viability ([15]; 1000 nM): 94.3% | cell viability ([15]; 10000 nM): 100%

Cc1ccc(N2CCN(CC[C@H]3NC(=O)c4ccccc43)CC2)cc1C
relative viability EC50 [1]: > 10 µM | relative viability EC50 [2]: > 10 µM | relative viability EC50 [3]: > 10 µM | relative viability EC50 [4]: > 10 µM | relative viability EC50 [5]: > 10 µM | drug sensitivity score [6]: 0 | drug sensitivity score [7]: 0 | drug sensitivity score [8]: 0 | drug sensitivity score [9]: 0 | drug sensitivity score [10]: 0 | cell viability ([11]; 1 nM): 90.2% | cell viability ([11]; 10 nM): 96.1% | cell viability ([11]; 100 nM): 96.2% | cell viability ([11]; 1000 nM): 95.2% | cell viability ([11]; 10000 nM): 97.3% | cell viability ([12]; 1 nM): 97.3% | cell viability ([12]; 10 nM): 90.7% | cell viability ([12]; 100 nM): 92.4% | cell viability ([12]; 1000 nM): 97% | cell viability ([12]; 10000 nM): 96.4% | cell viability ([13]; 1 nM): 90.8% | cell viability ([13]; 10 nM): 97.7% | cell viability ([13]; 100 nM): 93.4% | cell viability ([13]; 1000 nM): 98.7% | cell viability ([13]; 10000 nM): 111% | cell viability ([14]; 1 nM): 96.7% | cell viability ([14]; 10 nM): 101% | cell viability ([14]; 100 nM): 98.9% | cell viability ([14]; 1000 nM): 96.2% | cell viability ([14]; 10000 nM): 102% | cell viability ([15]; 1 nM): 104% | cell viability ([15]; 10 nM): 96.1% | cell viability ([15]; 100 nM): 95.6% | cell viability ([15]; 1000 nM): 99.7% | cell viability ([15]; 10000 nM): 113%

O=CN1CCC(C(=O)NCCN2CCC(=C3c4ccccc4C=Cc4ccccc43)CC2)CC1 [AT-1015]
relative viability EC50 [1]: > 10 µM | relative viability EC50 [2]: > 10 µM | relative viability EC50 [3]: > 10 µM | relative viability EC50 [4]: > 10 µM | relative viability EC50 [5]: > 10 µM | drug sensitivity score [6]: 0.7 | drug sensitivity score [7]: 0 | drug sensitivity score [8]: 0 | drug sensitivity score [9]: 0 | drug sensitivity score [10]: 0 | cell viability ([11]; 1 nM): 104% | cell viability ([11]; 10 nM): 99.9% | cell viability ([11]; 100 nM): 98.2% | cell viability ([11]; 1000 nM): 102% | cell viability ([11]; 10000 nM): 77% | cell viability ([12]; 1 nM): 101% | cell viability ([12]; 10 nM): 108% | cell viability ([12]; 100 nM): 104% | cell viability ([12]; 1000 nM): 105% | cell viability ([12]; 10000 nM): 93.8% | cell viability ([13]; 1 nM): 104% | cell viability ([13]; 10 nM): 108% | cell viability ([13]; 100 nM): 110% | cell viability ([13]; 1000 nM): 103% | cell viability ([13]; 10000 nM): 99.8% | cell viability ([14]; 1 nM): 96.3% | cell viability ([14]; 10 nM): 97.4% | cell viability ([14]; 100 nM): 94.8% | cell viability ([14]; 1000 nM): 96.8% | cell viability ([14]; 10000 nM): 91.4% | cell viability ([15]; 1 nM): 93.2% | cell viability ([15]; 10 nM): 103% | cell viability ([15]; 100 nM): 89.2% | cell viability ([15]; 1000 nM): 97.7% | cell viability ([15]; 10000 nM): 88.7%

CC(=O)O[C@H]1Cc2ccccc2N(C(N)=O)c2ccccc21 [eslicarbazepine-acetate]
relative viability EC50 [1]: > 10 µM | relative viability EC50 [2]: > 10 µM | relative viability EC50 [3]: > 10 µM | relative viability EC50 [4]: > 10 µM | relative viability EC50 [5]: > 10 µM | drug sensitivity score [6]: 0 | drug sensitivity score [7]: 0 | drug sensitivity score [8]: 0 | drug sensitivity score [9]: 0 | drug sensitivity score [10]: 0 | cell viability ([11]; 1 nM): 90.4% | cell viability ([11]; 10 nM): 85.9% | cell viability ([11]; 100 nM): 95.9% | cell viability ([11]; 1000 nM): 93.8% | cell viability ([11]; 10000 nM): 101% | cell viability ([12]; 1 nM): 104% | cell viability ([12]; 10 nM): 99.9% | cell viability ([12]; 100 nM): 91.3% | cell viability ([12]; 1000 nM): 95.5% | cell viability ([12]; 10000 nM): 89% | cell viability ([13]; 1 nM): 96.9% | cell viability ([13]; 10 nM): 99.7% | cell viability ([13]; 100 nM): 96.3% | cell viability ([13]; 1000 nM): 98.9% | cell viability ([13]; 10000 nM): 98.2% | cell viability ([14]; 1 nM): 97.5% | cell viability ([14]; 10 nM): 93.6% | cell viability ([14]; 100 nM): 95.2% | cell viability ([14]; 1000 nM): 96.7% | cell viability ([14]; 10000 nM): 101% | cell viability ([15]; 1 nM): 98.9% | cell viability ([15]; 10 nM): 98.4% | cell viability ([15]; 100 nM): 108% | cell viability ([15]; 1000 nM): 102% | cell viability ([15]; 10000 nM): 111%

CS(=O)(=O)Nc1ccc2oc3c(OC(F)F)ccc(C(=O)Nc4c(Cl)cncc4Cl)c3c2c1 [oglemilast]
relative viability EC50 [1]: > 10 µM | relative viability EC50 [2]: > 10 µM | relative viability EC50 [3]: > 10 µM | relative viability EC50 [4]: > 10 µM | relative viability EC50 [5]: > 10 µM | drug sensitivity score [6]: 0.6 | drug sensitivity score [7]: 0 | drug sensitivity score [8]: 0 | drug sensitivity score [9]: 0 | drug sensitivity score [10]: 1.3 | cell viability ([11]; 1 nM): 96.1% | cell viability ([11]; 10 nM): 87.9% | cell viability ([11]; 100 nM): 93.3% | cell viability ([11]; 1000 nM): 86% | cell viability ([11]; 10000 nM): 89.8% | cell viability ([12]; 1 nM): 108% | cell viability ([12]; 10 nM): 101% | cell viability ([12]; 100 nM): 92.2% | cell viability ([12]; 1000 nM): 103% | cell viability ([12]; 10000 nM): 90.1% | cell viability ([13]; 1 nM): 102% | cell viability ([13]; 10 nM): 95.9% | cell viability ([13]; 100 nM): 96.2% | cell viability ([13]; 1000 nM): 90.5% | cell viability ([13]; 10000 nM): 99.8% | cell viability ([14]; 1 nM): 97.6% | cell viability ([14]; 10 nM): 104% | cell viability ([14]; 100 nM): 97% | cell viability ([14]; 1000 nM): 101% | cell viability ([14]; 10000 nM): 94.2% | cell viability ([15]; 1 nM): 91% | cell viability ([15]; 10 nM): 88.4% | cell viability ([15]; 100 nM): 100% | cell viability ([15]; 1000 nM): 92.7% | cell viability ([15]; 10000 nM): 81.1%

CC1C(=O)OC2C(O)C34C5CC(C(C)(C)C)C36C(OC(=O)C6O)OC4(C(=O)O5)C12O (stereo not given) [ginkgolide-B]
relative viability EC50 [1]: > 10 µM | relative viability EC50 [2]: > 10 µM | relative viability EC50 [3]: > 10 µM | relative viability EC50 [4]: > 10 µM | relative viability EC50 [5]: > 10 µM | drug sensitivity score [6]: 0 | drug sensitivity score [7]: 0 | drug sensitivity score [8]: 0 | drug sensitivity score [9]: 0 | drug sensitivity score [10]: 0 | cell viability ([11]; 1 nM): 110% | cell viability ([11]; 10 nM): 98.4% | cell viability ([11]; 100 nM): 99% | cell viability ([11]; 1000 nM): 97.3% | cell viability ([11]; 10000 nM): 97.5% | cell viability ([12]; 1 nM): 98% | cell viability ([12]; 10 nM): 93.4% | cell viability ([12]; 100 nM): 102% | cell viability ([12]; 1000 nM): 93.8% | cell viability ([12]; 10000 nM): 92.8% | cell viability ([13]; 1 nM): 100% | cell viability ([13]; 10 nM): 101% | cell viability ([13]; 100 nM): 97.1% | cell viability ([13]; 1000 nM): 98.9% | cell viability ([13]; 10000 nM): 100% | cell viability ([14]; 1 nM): 106% | cell viability ([14]; 10 nM): 102% | cell viability ([14]; 100 nM): 106% | cell viability ([14]; 1000 nM): 96.2% | cell viability ([14]; 10000 nM): 104% | cell viability ([15]; 1 nM): 106% | cell viability ([15]; 10 nM): 90.8% | cell viability ([15]; 100 nM): 103% | cell viability ([15]; 1000 nM): 98.6% | cell viability ([15]; 10000 nM): 106%

COc1ccc(NS(=O)(=O)c2ccc(I)cc2)cc1N1CCN(C)CC1
relative viability EC50 [1]: > 10 µM | relative viability EC50 [2]: > 10 µM | relative viability EC50 [3]: > 10 µM | relative viability EC50 [4]: > 10 µM | relative viability EC50 [5]: > 10 µM | drug sensitivity score [6]: 0.4 | drug sensitivity score [7]: 0 | drug sensitivity score [8]: 0 | drug sensitivity score [9]: 0 | drug sensitivity score [10]: 0 | cell viability ([11]; 1 nM): 108% | cell viability ([11]; 10 nM): 104% | cell viability ([11]; 100 nM): 100% | cell viability ([11]; 1000 nM): 99.9% | cell viability ([11]; 10000 nM): 82.6% | cell viability ([12]; 1 nM): 109% | cell viability ([12]; 10 nM): 98% | cell viability ([12]; 100 nM): 102% | cell viability ([12]; 1000 nM): 98.5% | cell viability ([12]; 10000 nM): 93.3% | cell viability ([13]; 1 nM): 103% | cell viability ([13]; 10 nM): 107% | cell viability ([13]; 100 nM): 102% | cell viability ([13]; 1000 nM): 100% | cell viability ([13]; 10000 nM): 92.2% | cell viability ([14]; 1 nM): 101% | cell viability ([14]; 10 nM): 97.7% | cell viability ([14]; 100 nM): 102% | cell viability ([14]; 1000 nM): 99.8% | cell viability ([14]; 10000 nM): 98.2% | cell viability ([15]; 1 nM): 95.6% | cell viability ([15]; 10 nM): 94.7% | cell viability ([15]; 100 nM): 102% | cell viability ([15]; 1000 nM): 93.3% | cell viability ([15]; 10000 nM): 101%
